These results are taken from publication PMC10960024, “Diindoles produced from commensal microbiota metabolites function as endogenous CAR/Nr1i3 ligands” (Nature Communications, 2024).

Series [1] has as its system mCAR target genes (cyp2b10, cyp3a11, sult2a1) in mouse liver. As to the kind of experiment: qPCR of mCAR target genes in mouse liver after intraperitoneal treatment. It counts as in vivo. The note with it: for cyp2b10 expression in liver, wild-type mice: 25 mg/kg i.p. once daily for three days; for sult2a1 expression in liver: WT or Nr1i3-/- mice; for cyp3a11 expression in liver: mouse liver, with or without And pre-treatment. As to the method:
(§1) 12–15 week-old C57BL/6 J mice were obtained from Jackson Laboratories and were housed on a standard 12 h light/dark cycle. Nr1i3^−/− mice with C57BL/6 J background were obtained from David Moore’s lab (PMID: 11057673) at Baylor College of Medicine, and used at 13–26 weeks of age. Wild-type male, female and Nr1i3^−/− male mice were used in this study, due to known sex-specific CAR activities. Mice were housed in groups of 2–5 mice per cage on a standard 12 h light/dark cycle and fed with rodent chow diet (Inotiv, Teklad rodent diet 2918). Temperature was maintained at 21 °C with a range of 21–24 °C and humidity at 16–51%. National Institute of Health guidelines for the care and use of laboratory animals were followed with all experiments performed as directed by the Institutional Animal Care and Use Committee at the University of Illinois, Urbana-Champaign (UIUC, IACUC protocol: 22183). Mice were acclimatized to the UIUC mouse facility for 2 weeks prior to experiments. DIM and DIE were dissolved in 5% DMSO in corn oil and injected intraperitoneally at 25 mg/kg once daily for three days. After 4 h of the third injection, mice were sacrificed to collect serum, livers and intestines. TCPOBOP was dissolved in corn oil and injected intraperitoneally at 3 mg/kg once and the livers collected after 3 days for further studies. When used to block CAR activity, 100 mg/kg androstenol was injected intraperitoneally 15 min prior to the first DIM or DIE treatment. RNA from mice livers was isolated using TRIzol (Invitrogen) reagent using the manufacturer’s instructions. 3–5 µg of RNA was used to synthesize cDNA with random primers (NEBioLabs) and Maxima Reverse Transcriptase kits (Thermo Fisher Scientific). cDNA was further diluted, and 50 ng was used for SYBR green (Thermo Fisher Scientific) based qRT-PCR. Relative gene expression was calculated by the delta Ct method and normalized to 36b4 levels as loading controls. qPCR primers for gene expression analysis are listed in Supplementary Table 3.
In general terms: In qPCR the cycle at which signal appears reflects the starting amount.

In series [2] the target is T1, His-tagged CAR-LBD-SRC1 fusion protein (Homo sapiens, UniProt Q14994).
T1 construct: The human CAR LBD (Lys^108 – Ser^352) was amplified by PCR from cDNA; HIS6; made in house; host or cells: E. coli BL21(DE3)
T1 sequence (Q14994 108-352): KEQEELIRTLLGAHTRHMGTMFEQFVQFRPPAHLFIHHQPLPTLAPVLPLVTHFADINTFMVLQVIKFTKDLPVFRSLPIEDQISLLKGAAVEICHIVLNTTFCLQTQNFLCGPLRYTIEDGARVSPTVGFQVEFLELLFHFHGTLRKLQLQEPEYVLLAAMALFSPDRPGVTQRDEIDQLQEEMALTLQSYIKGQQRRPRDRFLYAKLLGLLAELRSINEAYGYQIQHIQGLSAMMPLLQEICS
Description: Isothermal titration calorimetry (ITC). Particulars: 25 °C; ligand 50 μM; mean of two independent experiments. It counts as binding. As to the method:
Purified hCAR-SRC1 protein (200–250 µM) was dissolved in 120 μL of PBS and supplemented with 0.5% DMSO. All experiments were performed in a MicroCal Auto-iTC200 instrument (Malvern Panalytical, Marlvern, United Kingdom) at 25 °C. Ligands were used at a concentration of 50 μM. Protein was titrated into cells in a series of 19 injections (injection 1 = 0.4 µL, injection 2–19 = 2 µL) 180 s apart. Control experiments performed by injection of the potein into […] yielded insignificant heats of dilution, and heat responses were subtracted. Integrated heat effects were analyzed using Microcal Origin 7 software (Malvern Instruments).

The next series has as its target T2, GAL4-hCAR LBD (Homo sapiens, UniProt Q14994).
T2 construct: chimeric yeast GAL4 DBD fused to an hCAR LBD; expressed in transfected cells; host or cells: HEK293T (ATCC, CRL-3216)
T2 sequence (Q14994 109-352 limits assumed): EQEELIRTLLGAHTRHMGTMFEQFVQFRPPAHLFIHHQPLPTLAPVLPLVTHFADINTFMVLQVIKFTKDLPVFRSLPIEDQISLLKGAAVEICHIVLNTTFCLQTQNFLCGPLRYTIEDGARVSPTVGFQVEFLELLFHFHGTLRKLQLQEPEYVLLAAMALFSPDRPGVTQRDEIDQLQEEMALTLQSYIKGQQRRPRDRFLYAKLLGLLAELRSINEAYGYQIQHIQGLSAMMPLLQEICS
Description: HEK293T GAL4-hCAR dual transfection reporter assay with PK11195 (antagonist displacement). In kind it is cell-based. The note with it: read-out: HEK293 GAL4-hCAR EC50. The source says:
The GAL4-hCAR, UAS-Luc, pcDNA-GAL4, pGL4-Renilla-Luc and pGEM plasmids were generously provided by Dr. David Mangelsdorf. The GAL4-hCAR plasmid encodes a constitutively expressed chimeric yeast GAL4 DBD fused to an hCAR LBD. The UAS-Luc plasmid encodes a Firefly luciferase reporter under the control of a GAL4 response element. The pcDNA plasmid encodes a constitutively expressed GAL4 DBD and was used as a control vector to determine non-specific luminescence in all HEK293T cellular reporter assays. The pGL4-Renilla-Luc plasmid encodes a constitutively expressed Renilla luciferase reporter and was used as a transfection control in the HEK293T cellular reporter assays.
HEK293T cells (ATCC, CRL-3216) were seeded at a density of 40,000 cells per well in white flat-bottom 96-well microplates (Greiner CellStar, 655073) in Dulbecco’s Modified Eagle Medium (DMEM) (2.5 g/l glucose) supplemented with 10% stripped fetal bovine serum with 100 units/ml of penicillin and incubated for 24 h at 37 °C. Transfection was carried out using 0.3 µL/well of Lipofectamine 2000 (Thermo Fisher Scientific, 11668019). Cells were transfected with 10 ng/well of either pcDNA or GAL4-hCAR, 50 ng/well of UAS-Luc, 5 ng/well of pGL4-Renilla-Luc, and 85 ng/well of pGEM for a total of 150 ng/well of DNA. […] Cells were incubated for 16-hours to allow build-up of luciferase and then processed using the Dual-Glo Luciferase Assay System (Promega, E2940) as per the manufacturer’s instructions. Incubations were performed in four technical replicates.

The test system of series [3] is cyp2b6, cyp3a4, sult2a1 mRNA in PHH. Description: RT-qPCR of CAR target genes in primary human hepatocytes. In kind it is cell-based. The note with it: two donors, 48 h. As to the method: PHH culture, RNA extraction and gene expression analyses were performed as described previously. Primer sequences for cyp2b6, cyp3a4, sult2a1, and glyceraldehyde-3-phosphate dehydrogenase (gapdh) are shown in Supplementary Table 3.

A short description of the next series: Liver histology (H&E). In kind it is in vivo. As to the method:
as §1, with “3. […]” for “3.”

Take `CC(c1c[nH]c2ccccc12)c1c[nH]c2ccccc12` [DIE, 3,3’-diindolylethane]: in series [1], the “cyp2b10 expression in liver, wild-type mice” value is “robustly induced”; the “sult2a1 expression in liver” value is recorded as “did not show significant responses”; the “cyp3a11 expression in liver” value was “did not affect”. In addition, the equilibrium dissociation constant (Kd) in series [2] came out at 250 nM. Also, on GAL4-hCAR LBD, the EC50 worked out at 720 nM. Also, in series [3], the “cyp2b6 mRNA expression” value was “selectively upregulated”, the “cyp3a4 mRNA expression (joint CAR/PXR target gene)” value is reported as “more variable” and the “sult2a1 mRNA expression (non-target gene)” value is reported as “no effects”. Besides, the “liver histology (H&E) findings” value in the series “Liver histology (H&E)” (after treatment) is recorded as “no increase in hepatocyte size, cytoplasmic swelling, obvious damage or inflammation”.

In the case of `c1ccc2c(Cc3c[nH]c4ccccc34)c[nH]c2c1` [DIM, diindolylmethane], in series [1], the “cyp2b10 expression in liver, wild-type mice” value is “robustly induced”; the “sult2a1 expression in liver” value is “did not show significant responses”; the “cyp3a11 expression in liver” value is on record as “did not affect”. This compound gave a Kd in series [2] of 3900 nM. In addition, on GAL4-hCAR LBD, the EC50 was 1740 nM. Besides, in series [3], the “cyp2b6 mRNA expression” value is recorded as “selectively upregulated”, the “cyp3a4 mRNA expression (joint CAR/PXR target gene)” value was “more variable” and the “sult2a1 mRNA expression (non-target gene)” value is “no effects”. The “liver histology (H&E) findings” value in “Liver histology (H&E)” (mouse, in vivo) was “no increase in hepatocyte size, cytoplasmic swelling, obvious damage or inflammation”.

A word on the Kd: it is the equilibrium constant for the complex coming apart. In general, EC50 refers to the midpoint of the concentration-response curve.
